# Source: patent publication US12486298B2, “Fucosyltransferase specific inhibition using fucose mimetics” (THE FLORIDA INTERNATIONAL UNIVERSITY BOARD OF TRUSTEES, priority 2020, dated 2025)
# Columns and labels:
# [1] = target: T1, fucosyltransferase VII (FTVII) (Homo sapiens, UniProt Q11130); assay: FTVII exofucosylation of mesenchymal stem cells (MSC), sLe^x by flow cytometry; assay type: cell-based; settings: MSCs
# T1 sequence (Q11130 37-342 limits assumed): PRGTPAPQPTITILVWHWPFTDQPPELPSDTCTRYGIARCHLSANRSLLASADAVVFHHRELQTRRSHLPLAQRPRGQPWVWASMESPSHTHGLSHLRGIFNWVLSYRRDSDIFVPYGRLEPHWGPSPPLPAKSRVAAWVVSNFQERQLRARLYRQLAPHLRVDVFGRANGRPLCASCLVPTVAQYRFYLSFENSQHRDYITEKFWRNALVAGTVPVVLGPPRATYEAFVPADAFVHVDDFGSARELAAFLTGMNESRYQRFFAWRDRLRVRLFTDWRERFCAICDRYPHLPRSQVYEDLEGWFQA
# Description: (§1) A Canto II (BD Biosciences) flow cytometer was utilized for flow cytometry and the data acquired was analyzed using FlowJo Software (Treestar). Cells were stained using antibodies specific to sLe^X (Alexa-Fluor 488 Mouse Anti-Human CD15s (BD Biosciences)), or Le^X (APC anti-human CD15 (SSEA-1) Antibody (BioLegend)).
# (§2) Cells of the RPMI-8402 cell line and MSC cell line were treated with either 0.3 ug of fucosyltransferase VI (FTVI), 2.7 ug of fucosyltransferase VII (FTVII), 1.0 ug fucosyltransferase IX (FTIX) or buffer-only at 37° C. for 60 minutes. All reactions contained at 1×10^6 cells/30 ul in HBSS with 10 mM Hepes, 0.1% Human Serum Albumin, and 1.0 mM GDP fucose (GDP-Fuc) (Carbosynth) and the appropriate fucosytransferase. Then, mimetic 1 was added to each of the treatment groups in molar equivalents with respect to GDP-Fuc with each of the fucosytransferases. […]
# (§3) Mimetic 1 (FIG. 1) was tested as an inhibitor of FT-mediated exofucosylation on these cells and the extent of fucosylation was monitored using antibodies that detect the creation of the relevant fucosylated epitopes, i.e., sLe^x or Le^x. […]
# [2] = target: T2, fucosyltransferase VI (FTVI) (Homo sapiens, UniProt P51993); assay: FTVI exofucosylation of mesenchymal stem cells (MSC), sLe^x and Le^x by flow cytometry; assay type: cell-based; settings: MSCs; 1.0 mM GDP-Fuc with 1.0 mM or 2.0 mM mimetic 1
# T2 construct: purchased R&D systems
# T2 sequence (P51993 35-359 limits assumed): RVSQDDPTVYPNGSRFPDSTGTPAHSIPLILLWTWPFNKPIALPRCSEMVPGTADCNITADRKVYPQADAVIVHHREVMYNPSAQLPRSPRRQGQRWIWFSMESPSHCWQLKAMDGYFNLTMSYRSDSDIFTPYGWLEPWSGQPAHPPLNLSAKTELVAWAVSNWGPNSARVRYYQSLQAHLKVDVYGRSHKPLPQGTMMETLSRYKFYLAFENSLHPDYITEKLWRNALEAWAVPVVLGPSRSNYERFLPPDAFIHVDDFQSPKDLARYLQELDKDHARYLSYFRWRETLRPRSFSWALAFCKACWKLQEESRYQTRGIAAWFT
# Description: as §1, §2, §3
# [3] = test system: E-selectin bearing HUVEC; assay: Parallel plate flow chamber: exofucosylated RPMI-8402 cells on TNFα-stimulated HUVEC under shear; assay type: cell-based, human; settings: for number of interacting RPMI-8402 cells on HUVEC: shear 0.5-8 dynes/cm^2
# Description: Human umbilical vein endothelial cells (HUVEC, Lonza) were cultured in Endothelial Cell Growth Media (R&D Systems) in Bioflux microfluidic chambers that had been previously coated with 250 ug/ml fibronectin (BD Biosciences). Then 4 hours prior to rolling assay, cells were activated with 40 ng/ml TNFα (R&D Systems). Different cell subsets, based on exofucoslylation/mimetic conditions, were then infused into the chamber at a concentration of 2×10^6/ml and shear stress was applied from 0.5-8 dynes/cm^2. Then RPMI-8402 subsets were loaded into chambers containing monolayers of E-selectin bearing HUVECs with an initial shear rate of 0.5 dyne/cm^2, with stepwise increments in the shear rate up to 8 dynes/cm^2. The number of tethering/interacting RPMI-8402 cells on HUVEC were quantified at each shear rate and averaged across three different fields of view.
# As sLe^x is the primary ligand for E-selectin which is induced on endothelial cells by inflammatory cytokine, e.g., TNFα the biological impacts of mimetic 1's inhibition of sLe^x binding to E-selectin under hemodynamic shear was evaluated. To this end, RPMI-8402 cells were left untreated or exofucosylated with 1.0 mM GDP-Fuc, 1.0 mM GDP-Fuc and 2.0 mM mimetic 1 or preincubated with FTVI and 2.0 mM mimetic 1 for 45 min followed by addition of 1.0 mM GDP-Fuc for 1 h and the presence of sLe^x determined by flow cytometry (FIGS. 6A and 6B). The RPMI-8402 cells treated as outlined above were then loaded in a parallel plate flow chamber seeded with monolayers of human umbilical vein endothelial cells (HUVEC) that had been stimulated with TNFα (FIG. 6C). The RPMI cells were introduced under defined fluid shear conditions to determine inhibition.
smiles,measurement,setting,value
CC1OC2Oc3ccc(CC(=O)O)cc3SC2C(O)C1O (stereo not shown) [mimetic 1],inhibition of FTVII sLe^x production,[1]; 1.0 mM GDP-Fuc with 1.0 mM or 2.0 mM mimetic 1,inhibition was clear
same,level of FTVII inhibition in pre-incubation reactions,"[1]; pre-incubation with 2.0 mM mimetic 1, then 1.0 mM GDP-Fuc",stronger
same,inhibition of FTVI production of Le^x,[2],clearly inhibited
same,inhibition of FTVI production of sLe^x,[2],markedly diminished
same,number of interacting RPMI-8402 cells on HUVEC,"[3]; exofucosylated with FTVI, 1.0 mM GDP-Fuc and 2.0 mM mimetic 1",reduced the number of interacting cells
same,ability of cells to adhere to HUVEC,[3]; physiologically relevant shear conditions,reduced the ability of cells to adhere to HUVEC
same,number of interacting RPMI-8402 cells on HUVEC,"[3]; preincubation with FTVI and 2.0 mM mimetic 1 for 45 min, then 1.0 mM GDP-Fuc for 1 h",reduced the number of interacting cells
